PMC4963197, “Phosphorylation acts positively and negatively to regulate MRTF-A subcellular localisation and activity” (eLife, 2016)
Read-outs that look alike come from different tables or passages of the source. Ends that are not written are not given here.

Assays:
[1] = test system: RevΔ MRTF-A GFP derivatives (Crm1-dependent NES); assay: RevΔGFP nuclear export assay; type: cell-based; settings: 50 nM LMB
[2] = test system: MRTF-A; assay: MRTF-A phosphorylation (SDS-PAGE mobility, immunoblot); type: cell-based, mouse; settings: for inhibition of MRTF-A phosphorylation by PKC inhibitor: inhibitor pretreatment 20 min, 100 ng/ml TPA 30 min
Protocol: (§1) NIH3T3 cells were cultured in DMEM, 10% FCS.
(§2) Data was processed using GraphPad Prism version 5.03.

[3] = biological target: T1, G-actin (Oryctolagus cuniculus, UniProt P68135); assay: Size exclusion chromatography of G-actin / Spacer1-RPEL2 peptide complexes; type: binding; settings: SEC, Spacer1-RPEL2 peptides; for apparent molecular mass of G-actin complex: Superdex 200, 20 mM Tris (pH 8), 100 mM NaCl; for apparent stoichiometry of G-actin binding: Superdex 200, pH 8
T1 construct: Actin was prepared as described ([Mouilleron et al., 2008]); from tissue; host or cells: rabbit skeletal muscle (own knowledge of the cited method)
Protocol: Peptides were synthesised by the London Research Institute (LRI) peptide synthesis platform. MRTF-A(94–142), FAM-MRTF-A(62–104) and FAM-MRTF-A(67–98) derivatives are as in Figure 4—figure supplement 2A. Phosphorylated 10–12 mer peptides for immunizations were centred on the phosphoacceptor site (see Table 1). Actin was prepared as described ([Mouilleron et al., 2008]).
Preparation of LatB-actin and fluorescence polarisation anisotropy assay were described ([Guettler et al., 2008]). Size exclusion chromatography was on Superdex 200 column equilibrated in 20 mM Tris (pH 8), 100 mM NaCl, 3 mM MgCl2, 0.2 mM EGTA, 0.3 mM TCEP [(tris(2-carboxyethyl)phosphine)], 5% (v/v) glycerol, calibrated with globular proteins of known molecular weight.

[4] = test system: MLC2; settings: MLC2 S19; 100 ng/ml TPA, then 15% FCS
[5] = test system: MRTF-A(2–204)-PK; assay: MRTF-A(2–204)-PK subcellular localisation by immunofluorescence; type: cell-based, mouse; settings: TPA
Protocol: as §1
(§3) For immunofluorescence ([Vartiainen et al., 2007]), NIH3T3 cells were transfected in six-well plates (150000 /well), with 50 ng pEF-Flag-MRTF-PK derivatives, 100 ng pEF-MRTF-A derivatives, 50 ng MEK-R4F, 100 ng RafER, using Lipofectamine 2000 (Invitrogen).
as §2

[6] = test system: MRTF-SRF target genes; settings: 100 ng/ml TPA, 0.25-3 hr; n = 2
[7] = test system: MRTF-A; assay: Site-specific MRTF-A phosphorylation (phosphospecific antibody immunoblot); type: cell-based, mouse; settings: for S33 phosphorylation / S98 phosphorylation: 100 ng/ml TPA, U0126 10 μM; for phosphorylation at analysed phospho-sites: 2 μM CD or 100 ng/ml TPA, sites analysed with phosphospecific antibodies
Protocol: as §1, §2

[8] = test system: RhoA; settings: 100 ng/ml TPA, then 15% FCS
Protocol: RhoGTP pull-downs used Rho activation assay (Millipore) with modifications. Cells were grown in 15 cm dishes, washed twice in ice-cold TBS, scraped in 400 μl 2x lysis buffer with 16% glycerol, made to 800 μl with water, and clarified. 20 μl was retained as input, and the remainder incubated with 20 μl GST-Rhotekin for 45 min at 4°C. After three 1 ml washes with Lysis buffer, proteins were eluted with SDS loading buffer and Rho recovery assessed by immunoblotting.

[9] = test system: F-actin assembly in NIH3T3 cells; assay: F- and G-actin quantitation (F:G ratio); type: cell-based, mouse; settings: n = 3; for effect of inhibitor on TPA inhibition of F-actin assembly: inhibitor 20 min, TPA 20 min, 15% FCS 20 min
Protocol: Cells were processed as described ([Vartiainen et al., 2007]) with modifications. G- and F-actin were detected using 0.3 μM DN'ase I-Alexa Fluor 488 conjugate and 5 U/ml Alexa Fluor 647-phalloidin (Molecular Probes). After three washes in PBS, cells were analysed using the Cellomics ArrayScan. For each experiment, six technical replicates were performed. Statistical significance of alterations in F:G ratio was estimated by one-way ANOVA (Dunnett's multiple comparison test).

[10] = test system: MRTF-A; assay: MRTF-A subcellular localisation by immunofluorescence; type: cell-based, mouse; settings: for effect of inhibitor on TPA block of serum-induced MRTF-A nuclear accumulation / inhibition of TPA-induced MRTF-A nuclear accumulation: U0126 10 μM, Gö6976 2 μM, Gö6983 6 μM; for effect of inhibitor on TPA block of serum-induced MRTF-A nuclear accumulation: TPA then 15% FCS; for inhibition of TPA-induced MRTF-A nuclear accumulation: pretreated 20 min
Protocol: as §1, §3, §2

[11] = test system: MRTF-A; settings: LatB; ref Vartiainen et al., 2007; cited from earlier work
[12] = test system: ERK; assay: ERK activation immunoblot; type: cell-based; settings: inhibitor pretreatment 20 min, 100 ng/ml TPA 30 min
Protocol: as §1, §2

[13] = test system: MEK; settings: 10 μM U0126; ref Bain et al., 2007; cited from earlier work
Protocol: as §1

[14] = test system: PKC isoforms; settings: 2 μM Gö6976; ref Martiny-Baron et al., 1993; cited from earlier work
Protocol: as §1

[15] = NIH3T3 cells, 100 ng/ml TPA, 2 μM CD or 50 nM LMB
[16] = 100 ng/ml TPA 20 min, then 15% FCS 20 min

## CCC(=C/[C@H](C)C/C=C/C(C)=C/[C@@H](C)C(=O)[C@@H](C)[C@H](O)[C@@H](C)C/C(C)=C/C(=O)O)/C=C/[C@@H]1OC(=O)C=C[C@@H]1C [Leptomycin B]
[1]
  nuclear localisation of RevΔMRTF-A derivatives: Nuclear localisation could be restored by serum stimulation, or by treatment with Leptomycin B (LMB)
[1]; listed as LMB
  nuclear localisation of RevΔMRTF-A derivatives: both proteins accumulated in the nucleus upon LMB treatment
[2]; [15]
  MRTF-A phosphorylation: did not induce phosphorylation unless the cells were simultaneously stimulated with CD or FCS

## S1-R2 WT: Spacer1-RPEL2 peptide (LKLKRARLADDLNEKIAQRPGPMELVEKNILPVESSLKEAIIVGQVNYP; UniProt Q8K4J6 94-142, looked up, fragment)
[3]
  apparent molecular mass of G-actin complex: 70.9 kDa
  apparent stoichiometry of G-actin binding: 1.5 actins

## CCCCCCCCCCCCCC(=O)O[C@@H]1[C@@H](C)[C@@]2(O)[C@@H](C=C(CO)C[C@]3(O)C(=O)C(C)=C[C@@H]23)[C@H]2C(C)(C)[C@]12OC(C)=O [TPA]
[4]
  serum-induced phosphorylation of MLC2: inhibited serum-induced accumulation of Rho.GTP, and phosphorylation of MLC2, independently of ERK but in a PKC-dependent manner
[5]
  nuclear accumulation of MRTF-A(2–204)-PK: promoted nuclear accumulation of MRTF-A(2–204)-PK
[2]
  MRTF-A phosphorylation: also induced MRTF-A phosphorylation
[6]
  induction of transcription of MRTF-SRF target genes: induced transcription of MRTF-SRF target genes in an ERK-dependent manner
[7]
  S33 phosphorylation: could be slightly increased upon serum or TPA stimulation
  S98 phosphorylation: by TPA in a U0126-sensitive fashion
  phosphorylation at analysed phospho-sites: induced a gradual accumulation at all analysed sites
[8]
  serum-induced accumulation of Rho.GTP: inhibited serum-induced accumulation of Rho.GTP
[9]; [16]
  serum-induced F-actin assembly: inhibited serum-induced F-actin assembly
[10]; [16]
  inhibition of serum-induced MRTF-A nuclear accumulation by TPA pretreatment: effectively blocked MRTF-A nuclear accumulation upon subsequent serum stimulation
[10]; 100 ng/ml TPA, 20 min
  proportion of cells with predominantly nuclear MRTF-A: substantially increased the proportion of cells with predominantly nuclear MRTF-A

## C/C1=C/C(=O)O[C@@H]2C[C@@H](CC[C@H](C)/C=C\CC1)O[C@@](O)([C@@H]1CSC(=O)N1)C2 [LatB, Latrunculin B]
[2]; NIH3T3, 15% FCS 30 min, then 1 μM LatB
  return of serum-induced MRTF-A phosphorylation: rapid return of MRTF-A phosphorylation to prestimulation levels
[11]
  cytoplasmic localisation of MRTF-A: restore cytoplasmic localisation of MRTF-A

## CC/C(=C(\c1ccc(O)cc1)c1ccc(OCCN(C)C)cc1)c1ccccc1 [4-hydroxytamoxifen]
[10]; Raf-ER cells, 1 μM 4OHT 20 min, then 15% FCS 20 min
  block of serum-induced nuclear accumulation by pre-treatment: Only pre-treatment with TPA significantly blocked serum-induced nuclear accumulation

## COc1ccc2c(c1)c(C1=C(c3c[nH]c4ccccc34)C(=O)NC1=O)cn2CCCN(C)C [Gö6983]
[2]
  inhibition of MRTF-A phosphorylation by PKC inhibitor: completely inhibited ERK activation and MRTF-A phosphorylation
[12]
  inhibition of TPA-induced ERK activation: completely inhibited ERK activation
[9]
  effect of inhibitor on TPA inhibition of F-actin assembly: relieved by Gö6983
[10]
  effect of inhibitor on TPA block of serum-induced MRTF-A nuclear accumulation: relieved by Gö6983
[10]; 100 ng/ml TPA
  inhibition of TPA-induced MRTF-A nuclear accumulation: sensitive to both the conventional-PKC inhibitor Gö6976 and the pan-PKC inhibitor Gö6983

## N#CC(=C(/N)Sc1ccccc1N)/C(C#N)=C(/N)Sc1ccccc1N [U0126]
[13]
  MEK inhibition and selectivity: sufficient to inhibit MEK activation without substantial effects on other kinases
[7]
  S33 phosphorylation: Induced S33 phosphorylation was U0126-sensitive
  S98 phosphorylation: U0126-sensitive
[9]
  effect of inhibitor on TPA inhibition of F-actin assembly: not by U0126 or Gö6976
[10]
  effect of inhibitor on TPA block of serum-induced MRTF-A nuclear accumulation: insensitive to U0126 and Gö6976

## S1-R2 pS98: Spacer1-RPEL2 peptide phosphorylated at S98 (LKLKRARLADDLNEKIAQRPGPMELVEKNILPVESSLKEAIIVGQVNYP; also: phosphorylated at S98, position not located in chain; UniProt Q8K4J6 94-142, looked up, fragment)
[3]
  apparent molecular mass of G-actin complex: 64.1 kDa
  apparent stoichiometry of G-actin binding: 1.4 actins

## Cn1c2ccccc2c2c3c(c4c5ccccc5n(CCC#N)c4c21)CNC3=O [Gö6976]
[14]
  PKC isoform block: insufficient to block non-novel PKC isoforms
[2]
  inhibition of MRTF-A phosphorylation by PKC inhibitor: only the latter completely inhibited ERK activation and MRTF-A phosphorylation
[12]
  inhibition of TPA-induced ERK activation: only the latter completely inhibited ERK activation
[9]
  effect of inhibitor on TPA inhibition of F-actin assembly: not by U0126 or Gö6976
[10]
  effect of inhibitor on TPA block of serum-induced MRTF-A nuclear accumulation: insensitive to U0126 and Gö6976
[10]; 100 ng/ml TPA
  inhibition of TPA-induced MRTF-A nuclear accumulation: sensitive to both the conventional-PKC inhibitor Gö6976 and the pan-PKC inhibitor Gö6983

## C=C1[C@@H](C)[C@H]2[C@H](Cc3ccccc3)NC(=O)[C@]23[C@H](OC(C)=O)/C=C/[C@@](C)(O)C(=O)[C@@H](C)C/C=C/[C@H]3[C@@H]1O [CD, cytochalasin D]
[2]; 2 μM CD
  phosphorylation of MRTF-A/MC fusion protein: exhibited CD-induced phosphorylation similar to that seen in MRTF-A
[2]; 2 μM CD with and without 10 μM U0126
  ERK dependence of CD-induced MRTF-A phosphorylation: this occurred independently of ERK
[2]; 15% FCS or 2 μM CD, 10 μM U0126
  phosphorylation of MRTF-A B2A (NLS mutant): could be induced by serum, but not CD
[2]; [15]
  MRTF-A phosphorylation: also induced MRTF-A phosphorylation
[7]
  phosphorylation at analysed phospho-sites: induced a gradual accumulation at all analysed sites
